Patent US8633166B2, “Methicillin-resistant Staphylococcus aureus active metabolites” (priority 2009, dated 2014)
In brackets after ≈: the same amount, converted by molar mass. Values belong to the compound of their own block, whether it stands above or below them.

What was measured:
Streptococcus pneumoniae = assay: In vitro MIC, broth microdilution (CLSI); assay type: cell-based; settings: MHB II with 2% lysed horse blood
Protocol: (§1) All test articles were dissolved in DMSO. Stock solutions were prepared at 40-fold the highest concentration in the test plate. The final concentration of DMSO in the test system was 2.5%.
(§2) The medium employed for the MIC assay was Mueller Hinton II Broth (MHB II-Becton Dickinson, #212322, Lot #9044411) for most of the organisms. MHB II was supplemented with 2% lysed horse blood (Cleveland Scientific Lot #22299-1) to accommodate the growth of Streptococcus pneumoniae, Streptococcus pyogenes and Streptococcus agalactiae. The media were prepared at 102.5% the normal weight to offset the dilution created by the addition of 5 μL drug solution to each well of the microdilution panels.
(§3) The MIC assay method followed the procedure described by the Clinical and Laboratory Standards Institute (see Clinical and Laboratory Standards Institute. Methods for Dilution Antimicrobial, Susceptibility Tests for Bacteria That Grow Aerobically; Approved Standard—Eighth Edition. CLSI document M07-A8 [ISBN 1-56238-689-1]. Clinical and Laboratory, Standards Institute, 940 West Valley Road, Suite 1400, Wayne, Pa. 19087-1898 USA, 2009) and employed automated liquid handlers to conduct serial dilutions and liquid transfers. Automated liquid handlers included the Multidrop 384 (Labsystems, Helsinki, Finland), Biomek 2000 and Multimek 96 (Beckman Coulter, Fullerton Calif.).
(§4) The wells of Columns 2-12 of standard 96-well microdilution plates (Falcon 3918) were filled with 150 μL of DMSO on the Multidrop 384. The drugs (300 μL) were dispensed into Column 1 of the appropriate row in these plates. These would become the mother plates from which the test plates (daughter plates) were prepared. The Biomek 2000 completed serial transfers through Column 11 in the mother plates. The wells of Column 12 contained no drug and were the organism growth control wells in the daughter plates. The daughter plates were loaded with 185 μL of the appropriate test media (described above) using the Multidrop 384. The daughter plates were prepared on the Multimek 96 instrument which transferred 5 μL of drug solution from each well of a mother plate to each corresponding well of each daughter plate in a single step. Therefore, the test agents were maintained in solution in 100% DMSO up until the point of being added to the final test medium.
(§5) Standardized inoculum of each organism was prepared per CLSI methods (See Clinical and Laboratory Standards Institute. Performance Standards for Antimicrobial Susceptibility Testing; Nineteenth Informational Supplement. CLSI document M100-S19 [ISBN 1-56238-690-5]. Clinical and Laboratory Standards Institute, 940 West Valley Road, Suite 1400, Wayne, Pa. 19087-1898 USA, 2009.). Suspensions were prepared in MHB to equal the turbidity of a 0.5 McFarland standard. The suspensions were diluted 1:9 in broth appropriate to the organism. The inoculum for each organism was dispensed into sterile reservoirs divided by width (Beckman Coulter), and the Biomek 2000 was used to inoculate the plates. Daughter plates were placed on the Biomek 2000 work surface reversed so that inoculation took place from low to high drug concentration. The Biomek 2000 delivered 10 μL of standardized inoculum into each well. This yielded a final cell concentration in the daughter plates of approximately 5×10^5 colony-forming-units/mL. Thus, the wells of the daughter plates ultimately contained 185 μL of broth, 5 μL of drug solution, and 10 μL of bacterial inoculum. The final concentration of DMSO in the assay plate was 2.5%.
(§6) Plates were stacked 3 high, covered with a lid on the top plate, placed in plastic bags, and incubated at 35° C. for approximately 18 hours for most of the isolates. The Streptococcus plates were read after 20 hours of incubation. The microplates were viewed from the bottom using a plate viewer. […] The MIC was read and recorded as the lowest concentration of drug that inhibited visible growth of the organism.

Staphylococcus aureus = assay: In vitro MIC, broth microdilution (CLSI); assay type: cell-based
Protocol: as §1, §2, §3, §4, §5, §6

Enterococcus faecalis = assay: In vitro MIC, broth microdilution (CLSI); assay type: cell-based
Protocol: as §1, §2, §3, §4, §5, §6

Streptococcus pyogenes = assay: In vitro MIC, broth microdilution (CLSI); assay type: cell-based; settings: MHB II with 2% lysed horse blood
Protocol: as §1, §2, §3, §4, §5, §6

Enterococcus faecium = assay: In vitro MIC, broth microdilution (CLSI); assay type: cell-based
Protocol: as §1, §2, §3, §4, §5, §6

Streptococcus agalactiae = assay: In vitro MIC, broth microdilution (CLSI); assay type: cell-based; settings: MHB II with 2% lysed horse blood
Protocol: as §1, §2, §3, §4, §5, §6

[1] = test system: Staphylococcus epidermidis; assay: In vitro MIC, broth microdilution (CLSI); assay type: cell-based
Protocol: as §1, §2, §3, §4, §5, §6

[2] = test system: methicillin resistant Staphylococcus aureus (MRSA); assay: In vitro antimicrobial evaluation, modified CLSI (formerly NCCLS) method; assay type: cell-based; settings: IC50 from percent growth versus test concentration; values only in FIG. 1
Protocol: The in vitro antimicrobial activity for the isolated glycosides is represented in FIG. 1. A modified version of CLSI (formerly NCCLS) method was used for the in vitro evaluation of test samples. Duplicate samples were transferred to 96-well microplates after diluting with 0.9% saline. The microbial cell suspensions were to give the desired target inocula after addition to the samples. Media and solvent controls were included in each assay. The IC50 was calculated by plotting percent growth versus test concentration.

enterococci = assay: In vitro MIC, for enterococci; assay type: cell-based; settings: E. faecalis and E. faecium, vancomycin-susceptible and vancomycin-resistant strains
Protocol: as §1
as §2, with “panels. […]” for “panels.”
as §6, with “incubation.” for “incubation. The microplates were viewed from the bottom using a plate viewer.”

streptococci = assay: In vitro MIC, streptococci; assay type: cell-based, Streptococcus; settings: highest concentrations considered for MIC readings
Protocol: as §1
as §2, with “panels. […]” for “panels.”
as §6, with “incubation.” for “incubation. The microplates were viewed from the bottom using a plate viewer.”

[3] = test system: Methicillin-resistant Staphylococcus aureus; assay: In vivo MRSA assay, thigh infection in a murine model; design: species or system Mice (CD-1); settings: vancomycin treated animals
Protocol: The in vivo antimicrobial activity for the isolated glycosides is represented in FIGS. 2A and 2B. Mice (CD-1) were purchased from Harlan Inc. and acclimatized up to 5 days before use. Food and water were available ad libitum throughout the study. They were rendered neutropenic by two injections of cyclophosphamide (100 mg/kg) given intraperitoneally, one and four days before infection. A volume of 50 uL suspension of Methicillin-resistant Staphylococcus aureus (1.5×10^6 live organisms) was injected intramuscularly (1M) into each of the two rear thighs. Each thigh was considered as an individual data point (total of 4 data points for each treatment). These mice were randomly distributed into the control or treatment groups (n=2/group).
Treatment with the test compound (1) was initiated via the intraperitoneal route 2 hrs after thigh inoculation. Control animals were concurrently administered saline (mock treatment) or vancomycin in the same volume as those receiving compound (1). All animals were sacrificed after 48 hours by CO2 inhalation. Immediately following sacrifice, thigh tissue was collected from the animals, weighed, and homogenized in 5.0 mL of saline. Thigh muscle homogenate was then processed for microbiological assay to determine the number of MRSA cfu per gram of muscle tissue.

MRSA = settings: background statement; cited from earlier work

- MIC (Streptococcus pneumoniae; MMX 748, PRSP, CHP): >32 µg/mL
- MIC (Streptococcus pneumoniae; MMX 866, PSSP, CHP): >32 µg/mL
- MIC (Streptococcus pneumoniae; MMX 1195, CLSI QC, ATCC 49619): >32 µg/mL
- MIC (Streptococcus pneumoniae; MMX 3130, PSSP, UCLA): >32 µg/mL
- MIC (Streptococcus pneumoniae; MMX 3160, PRSP, UCLA): >32 µg/mL
- MIC (Streptococcus pneumoniae; MMX 3937, PSSP, Mt. Sinai): >32 µg/mL
- MIC (Streptococcus pneumoniae; MMX 3953, PRSP, Mt. Sinai): >32 µg/mL
- MIC (Staphylococcus aureus; MMX 100, CLSI QC, ATCC 29213): >8 µg/mL
- MIC (Staphylococcus aureus; MMX 753, MSSA, CHP): >8 µg/mL
- MIC (Staphylococcus aureus; MMX 758, MRSA, CHP): >8 µg/mL
- MIC (Staphylococcus aureus; MMX 2055, MRSA, UCLA): >8 µg/mL
- MIC (Staphylococcus aureus; MMX 2063, MSSA, UCLA): >8 µg/mL
- MIC (Staphylococcus aureus; MMX 3856, MSSA, Mt. Sinai): >8 µg/mL
- MIC (Staphylococcus aureus; MMX 3894, MRSA, Mt. Sinai): >8 µg/mL
- MIC (Enterococcus faecalis; MMX 101, CLSI QC, ATCC 29212): 8 µg/mL (≈ 11 µM)
- MIC (Enterococcus faecalis; MMX 742, VSE, CHP): >8 µg/mL
- MIC (Enterococcus faecalis; MMX 3199, VSE, UCLA): >8 µg/mL
- MIC (Enterococcus faecalis; MMX 3821, VRE, Mt. Sinai): 8 µg/mL (≈ 11 µM)
- MIC (Enterococcus faecalis; MMX 3896, VSE, Mt. Sinai): >8 µg/mL
- MIC (Enterococcus faecalis; MMX 4131, VRE, CHP): 4 µg/mL (≈ 5.52 µM)
- MIC (Enterococcus faecalis; MMX 4160, VRE, UCLA): 8 µg/mL (≈ 11 µM)
- MIC (Streptococcus pyogenes; MMX 718, CHP): >32 µg/mL
- MIC (Streptococcus pyogenes; MMX 2572, UCLA): >32 µg/mL
- MIC (Streptococcus pyogenes; MMX 3928, Mt. Sinai): >32 µg/mL
- MIC (Enterococcus faecium; MMX 0799, VSE, CHP): >8 µg/mL
- MIC (Enterococcus faecium; MMX 0845, VSE, UCLA): 4 µg/mL (≈ 5.52 µM)
- MIC (Enterococcus faecium; MMX 1238, VRE, Mt. Sinai): 4 µg/mL (≈ 5.52 µM)
- MIC (Enterococcus faecium; MMX 1259, VSE, Mt. Sinai): >8 µg/mL
- MIC (Enterococcus faecium; MMX 4024, VRE, CHP): >8 µg/mL
- MIC (Enterococcus faecium; MMX 4048, VRE, UCLA): >8 µg/mL
- MIC (Streptococcus agalactiae; MMX 3743, Mt. Sinai): >32 µg/mL
- MIC (Streptococcus agalactiae; MMX 4093, UCLA): >32 µg/mL
- MIC (Streptococcus agalactiae; MMX 4106, CHP): >32 µg/mL
- MIC ([1]; MMX 762, MRSE, CHP): >8 µg/mL
- MIC ([1]; MMX 826, MRSE, UCLA): >8 µg/mL
- MIC ([1]; MMX 835, MSSE, UCLA): 8 µg/mL (≈ 11 µM)
- MIC ([1]; MMX 3703, MSSE, CHP): 8 µg/mL (≈ 11 µM)
- MIC ([1]; MMX 3752, MRSE, Mt. Sinai): >8 µg/mL
- MIC ([1]; MMX 3763, MSSE, Mt. Sinai): 8 µg/mL (≈ 11 µM)
Compound: C[C@@H]1O[C@@H](Oc2c(-c3ccc(O)cc3)oc3cc(O)cc(O)c3c2=O)[C@H](OC(=O)/C=C\c2ccc(O)cc2)[C@H](OC(=O)/C=C\c2ccc(O)cc2)[C@H]1O [Compound 4, kaempferol 3-O-α-L-(2″,3″-di-Z-p-coumaroyl)rhamnoside]
- in vitro activity (rank among the four compounds) [2]: most potent in vitro activity
- activity against enterococci (enterococci): inhibited multiple strains
- activity against the streptococci (streptococci): Neither compound was active

Compound: CN[C@H](CC(C)C)C(=O)N[C@H]1C(=O)N[C@@H](CC(N)=O)C(=O)N[C@H]2C(=O)N[C@H]3C(=O)N[C@H](C(=O)N[C@H](C(=O)O)c4cc(O)cc(O)c4-c4cc3ccc4O)[C@H](O)c3ccc(c(Cl)c3)Oc3cc2cc(c3O[C@@H]2O[C@H](CO)[C@@H](O)[C@H](O)[C@H]2O[C@H]2C[C@](C)(N)[C@H](O)[C@H](C)O2)Oc2ccc(cc2Cl)[C@H]1O [Vancomycin, reference compound]
- reduction compared to vehicle control [3]: 72%
- number of MRSA isolated from muscle tissue ([3]; intraperitoneal, 48 hours, neutropenic mice): 2.2×10^7 g of tissue
- success rate (MRSA): 35-57%
